Experimental data: patent US9387221B2, “SDF-1 binding nucleic acids and the use thereof in cancer treatment” (NOXXON Pharma AG, priority 2010, dated 2016)
[L-RNA-N] = L-ribonucleotide (mirror-image RNA, Spiegelmer), made from L-configured RNA phosphoramidites (N: the base); {PEG40k} = 40 kDa poly(ethylene glycol)

Legend:
[1] = tested on: SDF-1 induced sprouting, rings from rat aorta; test: Aortic ring sprouting assay; assay type: cell-based; settings: 10 nM SDF-1 + 1 μM Spiegelmer, 6 days
Experimental: After 6 to 7 days, sprouting (i.e. outgrowth of endothelial cells) was analysed by taking pictures and determining a sprouting index.
Aortae from male rats were obtained from Bagheri Life sciences (Berlin, Germany). The aortae were prepared freshly and transported on ice in MCDB 131-Medium (Invitrogen, Karlsruhe, Germany) containing 50 units/ml penicillin, 50 μg/ml streptomycin (both Invitrogen, Karlsruhe, Germany) and 2.5 μg/ml fungizone (Cambrex, USA).
For an experiment a single aorta was transferred to a cell culture dish together with the medium and residual connective tissue was removed. Then the aorta was cut with a scalpel into rings of about 1 to 2 mm length. The rings were washed intensively (at least five times) in Medium199 (Invitrogen, Karlsruhe, Germany) and then placed in wells of a 24 well plate, containing 450 μl of collagen solution per well. […]
Sprouting was documented by taking pictures with a digital camera. […] Pictures were analysed with the Scion Image image processing software. […] A plot histogram along this line was generated by the software, histograms were printed and peaks (representing sprouts crossing the line) were counted. […] 4 to 5 rings per condition were evaluated. […]

SDF-1 = SDF-1 (Homo sapiens, UniProt P48061); test: Inhibition of SDF-1-induced chemotaxis, Jurkat cells; assay type: cell-based; settings: for IC50: Spiegelmer, Jurkat cells migrating towards 0.3 nM human SDF-1, 3 h, 37° C., read-out: IC50, cell culture in vitro chemotaxis assay
Experimental: The human T cell leukemia cell line Jurkat, the human leukemic monocyte lymphoma cell line U937, the human pre-B cell leukemia cell line BV-173 and human pre-B ALL cell line Nalm-6 express CXCR4. […] All cells used were obtained from the DSMZ (Braunschweig). All cell lines were cultivated at 37° C. and 5% CO2 in RPMI 1640 medium with Glutamax (Invitrogen, Karlsruhe, Germany) which contains 10% fetal bovine serum, 100 units/ml penicillin and 100 μg/ml streptomycin (Invitrogen, Karlsruhe, Germany). One day before the experiment, cells were seeded in a new T175 flask with a density of 0.3×10^6/ml (Jurkat, U937, BV-173) or 0.75×10^6/ml (Nalm-6), respectively.
For the experiment, cells were centrifuged (5 min at 300 g), resuspended, counted and washed once with 15 ml HBH (Hanks balanced salt solution containing 1 mg/ml bovine serum albumin and 20 mM HEPES; Invitrogen, Karlsruhe, Germany). Then the cells were resuspended at 1.33×10^6/ml (Jurkat, U937, BV-173) or 2.67×10^6/ml (Nalm-6), respectively. Cells were then allowed to migrate through the porous membranes of the filter plates for three hours towards a solution containing SDF-1 and various amounts of Spiegelmer. The stimulation solutions (SDF-1+various concentrations of Spiegelmer) were made up as 10× solutions in a 0.2 ml low profile 96-tube plate. 212 μl HBH were pipetted into the lower compartments of the transport plate and 23.5 μl of the stimulation solutions were added. All conditions were made up as triplicates. After 20 to 30 min the filter plate was inserted into the plate containing the stimulation solutions and 75 μl of a cell suspension with 1.33×10^6/ml or 2.67×10^6/ml, respectively, were added to the wells of the filter plate (1×10^5 or 2×10^5 cells/well). The cells were then allowed to migrate for 3 h at 37° C. For calibration, 0, 10 and 30 μl of the cell suspension was added to 235, 225 and 205 μl HBH, respectively, in wells of a separate 96-well plate. After 3 hours incubation, the insert plate was removed and 30 μl resazurin working solution (440 μM in PBS) were added to the lower wells and to the wells of the calibration plate. The plates were then incubated at 37° C. for 2.5 h. After incubation, 100 μl of each well were transferred to a black 96 well plate.
For evaluation, fluorescence values were corrected for background fluorescence (no cells in well). Then the difference between experimental conditions with and without SDF-1 was calculated. The value for the sample without Spiegelmer (SDF-1 only) was set 100% and the values for the samples with Spiegelmer were calculated as percent of this. For a dose-response curve the percent-values were plotted against Spiegelmer concentration and the IC50-value (concentration of Spiegelmer at which 50% of the activity without Spiegelmer is present) was determined graphically from the resulting curve.

[2] = tested on: biotinylated human D-SDF-1; test: Direct pull-down binding assay; settings: aptamer (D-RNA), 37° C.; read-out: equilibrium binding constant KD, pull-down binding assay
Experimental: The affinity of aptamers to biotinlayted human D-SDF-1 was measured in a pull-down binding assay format at 37° C. Aptamers were 5′-phosphate labeled by T4 polynucleotide kinase (Invitrogen, Karlsruhe, Germany) using [γ-^32P]-labeled ATP (Hartmann Analytic, Braunschweig, Germany). The specific radioactivity of labeled aptamers was 200,000-800,000 cpm/pmol. Aptamers were incubated after de- and renaturation at 10, 20, 30 or 40 pM concentration at 37° C. in selection buffer (20 mM Tris-HCl pH 7.4; 137 mM NaCl; 5 mM KCl; 1 mM MgCl2; 1 mM CaCl2; 0.1% [w/vol] Tween-20) together with varying amounts of biotinlayted human D-SDF-1 for 4-12 hours in order to reach equilibrium at low concentrations. Selection buffer was supplemented with 10 μg/ml human serum albumin (Sigma-Aldrich, Steinheim, Germany), and 10 μg/ml yeast RNA (Ambion, Austin, USA) in order to prevent adsorption of binding partners with surfaces of used plasticware or the immobilization matrix. The concentration range of biotinlayted human D-SDF-1 was set from 8 pM to 100 nM; total reaction volume was 1 ml. Peptide and peptide-aptamer complexes were immobilized on 1.5 μl Streptavidin Ultralink Plus particles (Pierce Biotechnology, Rockford, USA) which had been preequilibrated with selection buffer and resuspended in a total volume of 6 μl. Particles were kept in suspension for 30 min at the respective temperature in a thermomixer. Immobilized radioactivity was quantitated in a scintillation counter after detaching the supernatant and appropriate washing. The percentage of binding was plotted against the concentration of biotinlayted human D-SDF-1 and dissociation constants were obtained by using software algorithms (GRAFIT; Erithacus Software; Surrey U.K.) assuming a 1:1 stoichiometry.

human SDF-1α = human SDF-1α (Homo sapiens, UniProt P48061); test: Surface plasmon resonance measurement (Biacore 2000); assay type: binding; settings: Spiegelmer (L-RNA), 37° C.
Experimental: The Biacore 2000 instrument (Biacore AB, Uppsala, Sweden) was used to analyze binding of Spiegelmers to human SDF-1α. When coupling of human SDF-1α was to be achieved via amine groups, human SDF-1α was dialyzed against water for 1-2 h (Millipore VSWP mixed cellulose esters; pore size, […]) to remove interfering amines. CM4 sensor chips (Biacore AB, Uppsala, Sweden) were activated before protein coupling by a 35-μl injection of a 1:1 dilution of 0.4 M NHS and 0.1 M EDC at a flow of 5 μl/min. Human MCP-1 or human SDF-1α was then injected in concentrations of 0.1-1.5 μg/ml at a flow of 2 μl/min until the instrument's response was in the range of 1000-2000 RU (relative units). Unreacted NHS esters were deactivated by injection of 35 μl ethanolamine hydrochloride solution (pH 8.5) at a flow of 5 μl/min. The sensor chip was primed twice with binding buffer and equilibrated at 10 μl/min for 1-2 hours until the baseline appeared stable. For all proteins, kinetic parameters and dissociation constants were evaluated by a series of Spiegelmer injections at concentrations of 1000, 500, 250, 125, 62.5, 31.25, and 0 nM in selection buffer (Tris-HCl, 20 mM; NaCl, 137 mM; KCl, 5 mM; CaCl2, 1 mM; MgCl2, 1 mM; Tween20, 0.1% [w/v]; pH 7.4). In all experiments, the analysis was performed at 37° C. using the Kinject command defining an association time of 180 and a dissociation time of 360 seconds at a flow of 10 μl/min. Data analysis and calculation of dissociation constants (KD) was done with the BIAevaluation 3.0 software (BIACORE AB, Uppsala, Sweden) using the Langmuir 1:1 stochiometric fitting algorithm.

[3] = tested on: biotinylated human D-SDF-1; test: Competitive pull-down binding assay

human SDF-1α, sequence (P48061 22-89): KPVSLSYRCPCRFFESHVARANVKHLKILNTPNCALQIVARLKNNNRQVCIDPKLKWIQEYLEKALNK
SDF-1, sequence (P48061 22-89): as above

Row | Substance | blockage of SDF-1 induced sprouting (sprouting index) [1] | inhibition of SDF-1 induced chemotaxis (SDF-1; Jurkat cells, Control Spiegelmer up to 1 μM) | Kd [2] | Kd (human SDF-1α) | binding affinity in competitive pull-down binding assay vs. 191-D5-001 ([3]; reference 191-D5-001) | influence of the PEG-moiety on Spiegelmers potency to inhibit SDF-1 induced chemotaxis (SDF-1; Spiegelmer coupled to 40 kDa PEG at the 5′-end) | IC50 (SDF-1) | binding affinity of derivatives of 190-A3-001 ([3]; compared with 190-A3-001) | binding affinity in competitive pull-down binding assay vs. 192-A10-001 ([3]; aptamer level, reference 192-A10-001) | binding affinity in competitive pull-down binding assay vs. 191-D5-007 ([3]; reference 191-D5-007)
1 | 5′-40 kDa-PEG-UAAGGAAACUCGGUCUGAUGCGGUAGCGCUGUGCAGAGCU (all [L-RNA-N], 5' {PEG40k}, backbone not given here) [Control Spiegelmer, reference compound] | No blockage | no inhibitory effect |  |  |  |  |  |  |  | 
2 | CGGGAGGUUAGGGCUAGAAGUCGGUCCCG (chemistry not fully specified) [191-D5-007] |  |  | 2.2 nM | 0.8 nM | somewhat better | no influence | 0.1 nM |  |  | 
3 | GAGAUAGGGGUUAGGGCUUAAAGUCGGCUGAUUCUC (aptamer; Made as D-RNA aptamer and L-RNA Spiegelmer, tested form not given here, further chemistry not given here) [190-A3-004] |  |  | 4.6 nM | 4.7 nM |  |  | 0.1 nM | does not have an influence on the binding affinity |  | 
4 | GUGCUGCGGGGGUUAGGGCUAGAAGUCGGCCUGCAGCAC (aptamer; chemistry not fully specified) [197-B2] |  |  |  | 0.9 nM |  |  |  |  | weaker binding affinities | same binding affinity to SDF-1 as 191-D5-007
